{"source": "patent US8729034B2", "about": "“Pharmaceutical composition having virucidal and spermicidal activity” (priority 2007, dated 2014)", "type_in_all_cases": "cell-based", "key": {"human spermatozoa [1]": {"tested_on": "human spermatozoa", "test": "Sander & Cramer spermicidal assay (in vitro)", "experimental": "The exudates/liquefied human semen samples were suspended in BWW medium (pre equilibrated at 37 degree C.). The spermatozoa with forward motility were separated from immotile or sluggishly motile cells by the swim-up technique and were allowed to disperse evenly within a CO2 incubator at 37 degree C. At least five aliquots from each sample was used to prepare the working spermatozoa suspension. The swim up procedure was as follows:\nPre equilibrated BWW medium (1.25 ml) was gently layered over cauda-exudates or liquefied human semen (1 ml) in a sterile 15 ml conical-based centrifuge tube. The tube was inclined at an angle of 45 degree and incubated for 1 hour at 37 degree C. in a CO2-incubator. It was then gently returned to the upright position and the uppermost 1 ml medium with a turbid appearance was removed. This aliquot of motile cells was pooled from each set, then diluted with same volumes of pre equilibrated BWW medium, centrifuged at 500 g for 5 minutes and finally resuspended in 1 ml pre equilibrated BWW medium to obtain a working suspension. The sperm cells were counted in a Makler chamber (Zygotec Systems, Springfield, M A, USA) and finally a working spermatozoa suspension having concentration of 25 to 30×10^6 cells/ml was prepared.\nFor in vitro assay of spermicidal effect, sperms collected from proven male rats and mice, and motile spermatozoa from liquefied human semen were used.\nThe assay was done following the Sander & Cramer assay method. Two hundred micro liter (200 microliters) of working spermatozoa suspension was added to 1 ml solution of test material in BWW medium and mixed on a light vortex for 10 seconds. A wet mount was immediately prepared on a clean microscopy glass slide and examined (at ×100) under a phase contrast microscope (Leitz, Biomed). The weakest concentration that immobilized all spermatozoa within 20 seconds of mixing was recorded as MEC. At least five fields were examined for each wet mount preparation. The observation was repeated with five individual spermatozoa suspension for each concentration of test compound solution. For negative control, saponin solutions were replaced by equal volume of BWW medium, while Nonoxynol 9 was used as positive control."}, "human sperm [2]": {"tested_on": "human sperm", "test": "Modified Kremer-Test, cervical mucus penetration (Experiment B)", "conditions": "treated at MEC; 30 minutes at 37 degree C", "from_the_text": "A modified Kremer-Test was used for assessment of cervical mucus penetrating capacity of treated sperm. A drop of human mid-cycle cervical mucus was placed on a slide and flattened by a cover slip (22 mm×22 mm). A drop of human sperm suspension treated with the test compounds (at MEC) was deposited at the side of the cover slip and in contact with the edge, the sperm suspension moved in under the cover slip by capillary force and a clear interface was obtained between the sperm suspension and the cervical mucus. The slide preparation was placed within a CO2 incubator at 37 degree C. for 30 minutes. Suitable control sets were prepared side by side. Each preparation was examined under a phase contrast microscope to observe the entry of spermatozoa into the cervical mucus zone."}, "human spermatozoa [3]": {"tested_on": "human spermatozoa", "test": "Membrane lipid peroxidation, MDA by thiobarbituric acid (TBA) test", "conditions": "Ac-B 10-120 microgram per ml, 20 seconds", "experimental": "Membrane lipid peroxidation was estimated by the end point generation of malondialdehyde (MDA) determined by the thiobarbituric acid (TBA) test.\nSuspension of human spermatozoa was prepared using the swim up technique, as described above. A series of dilutions (10, 20, 40, 60, 80, 100 and 120 microgram per ml) of Ac-B was prepared in BWW medium. From each test (Ac-B) solution, 800 microliters was taken out and mixed with 200 microliters of sperm suspension with a gentle vortex for 10 seconds. After 20 seconds of mixing, the treated spermatozoa were separated from the suspending medium by centrifugation. The pellet of washed spermatozoa was resuspended in physiological saline. A control set of untreated sperm was treated similarly. Membrane lipid peroxidation was estimated by the end point generation of malondialdehyde (MDA), determined by the thiobarbituric acid (TBA) test.\nBriefly, diluted spermatozoa with or without treatment (250×10^6 cells in 1 ml) were mixed with 1 ml of cold 20% (wt/vol) trichloroacetic acid (TCA) to precipitate protein. The precipitate was pelleted by centrifugation (2000 rpm for 10 minutes), and 1 ml of the supernatant was incubated with 1 ml of 0.67% (wt/vol) TBA in a boiling water bath at 100 degree C. for 30 minutes. After cooling, the absorbance was determined by a spectrophotometer (UNICAM PU 8610 Kinetics spectrophotometer; Philips, Holland) at 535 nm."}, "human sperm [4]": {"tested_on": "human sperm", "test": "Electron microscopy of treated sperm (TEM/SEM)", "conditions": "Ac-B-treated human sperm", "experimental": "For electron microscopy, the suspending medium was replaced with 0.1M phosphate buffer (pH 7.0). A concentrated untreated (control) and Ac-B-treated (experimental) human sperm suspension were mixed with 2% glutaraldehyde in phosphate buffer for fixation at 4 degree C. for 4 hours. After three successive washings in buffer at room temperature, post-fixation was done by 1% osmium tetroxide. Thirty minutes after post-fixation, the spermatozoa were quickly washed with phosphate buffer and end block staining was done by saturated urenyl acetate solution. Dehydration of the fixed spermatozoa was done in graded (50%, 70%, 90% and 100%) ethyl alcohol. A portion of each set of dehydrated sperms were embedded in spur and blocks were prepared for ultra-thin sectioning. Ultra-thin sections were prepared in LKB Ultramicrotome using a diamond knife. Finally the thin sections were stained with urenyl acetate and freshly prepared lead citrate. The stained sections were thoroughly examined under TECHNI G2 BIOTWEEN transmission electron microscope (at ×25000). The rest of the dehydrated sperm sets were prepared for examination under tescan scanning electron microscope."}, "HIV-1 NL-4.3 virus": {"tested_on": "HIV-1 NL-4.3 virus", "conditions": "for Percentage inhibition of hiv growth in CEM-GFP T cell line, Without Pretreatment: untreated virus", "experimental": "Human CD4+ T cell line CEM-GFP cells were infected with HIV-1 NL-4.3 virus pretreated without or with Ac-B at varying concentrations (1 hour at 37 degree C.) at a multiplicity of infection (MOI) of 0.01. The cells were then cultured in the presence or absence of Ac-B for up to 7 days post infection. Virus production was analyzed in the culture supernatant on day-7 post infection by p24 antigen capture ELISA"}}, "note": "Values joined by “and” are separate entries in the source; they are usually repeats but may differ in a detail not shown here. Equal entries are not always repeated. “Also recorded” adds a separate entry of the source. Where two headings read alike, the source gives them in different places."}
{"substance": "Acaciaside-B [Ac-B]", "values": [{"measurement": "MEC as per Sander and Cramer Test", "setting": "human spermatozoa [1]; Human spermatozoa (N = 5), weakest concentration immobilizing all spermatozoa within 20 seconds", "result": "125 microgram per ml and 125 (±7) microgram per ml"}, {"measurement": "EC50 for spermicidal activity in vitro", "setting": "human spermatozoa [1]; human sperm", "result": 22, "unit": "microgram per ml"}, {"measurement": "MEC for spermicidal action", "setting": "human spermatozoa [1]; human sperm", "result": 125, "unit": "microgram"}, {"measurement": "MEC for spermicidal activity", "setting": "human spermatozoa [1]; human sperm", "result": 125, "unit": "micro g/ml"}, {"measurement": "MEC, spermicidal", "setting": "human spermatozoa [1]; human sperm", "result": 125, "unit": "µg/mL"}, {"measurement": "Entry of treated spermatozoa into human cervical mucus", "setting": "human sperm [2]", "result": "none of them crossed into the interface"}, {"measurement": "Production of malondialdehyde (MDA)", "setting": "human spermatozoa [3]", "result": "increase in the production of MDA; also recorded: dose-dependent increased generation of malondialdehyde (MDA)"}, {"measurement": "Electron microscopic finding on plasma membrane (TEM)", "setting": "human sperm [4]", "result": "vesiculization/vacuolization of the plasma membrane leading to its disintegration"}, {"measurement": "Percentage inhibition of hiv growth in CEM-GFP T cell line, Without Pretreatment", "setting": "HIV-1 NL-4.3 virus; Ac-B 0.1 microgram per ml, day-7 p24", "result": 0, "unit": "%"}, {"measurement": "Percentage inhibition of hiv growth in CEM-GFP T cell line, Pretreatment with Ac-B", "setting": "HIV-1 NL-4.3 virus; Ac-B 0.1 microgram per ml, virus pretreated 1 hour at 37 degree C, day-7 p24", "result": 70.5, "unit": "%"}, {"measurement": "Percentage inhibition of hiv growth in CEM-GFP T cell line, Without Pretreatment", "setting": "HIV-1 NL-4.3 virus; Ac-B 0.2 microgram per ml", "result": 0, "unit": "%"}, {"measurement": "Percentage inhibition of hiv growth in CEM-GFP T cell line, Pretreatment with Ac-B", "setting": "HIV-1 NL-4.3 virus; Ac-B 0.2 microgram per ml, virus pretreated", "result": 77.8, "unit": "%"}, {"measurement": "Percentage inhibition of hiv growth in CEM-GFP T cell line, Without Pretreatment", "setting": "HIV-1 NL-4.3 virus; Ac-B 0.25 microgram per ml", "result": 0, "unit": "%"}, {"measurement": "Percentage inhibition of hiv growth in CEM-GFP T cell line, Pretreatment with Ac-B", "setting": "HIV-1 NL-4.3 virus; Ac-B 0.25 microgram per ml, virus pretreated", "result": 92, "unit": "%"}, {"measurement": "Percentage inhibition of hiv growth in CEM-GFP T cell line, Without Pretreatment", "setting": "HIV-1 NL-4.3 virus; Ac-B 0.5 microgram per ml", "result": 36.1, "unit": "%"}, {"measurement": "Percentage inhibition of hiv growth in CEM-GFP T cell line, Pretreatment with Ac-B", "setting": "HIV-1 NL-4.3 virus; Ac-B 0.5 microgram per ml, virus pretreated", "result": 90.6, "unit": "%"}, {"measurement": "Percentage inhibition of hiv growth in CEM-GFP T cell line, Without Pretreatment", "setting": "HIV-1 NL-4.3 virus; Ac-B 1 microgram per ml", "result": 60.5, "unit": "%"}, {"measurement": "Percentage inhibition of hiv growth in CEM-GFP T cell line, Pretreatment with Ac-B", "setting": "HIV-1 NL-4.3 virus; Ac-B 1 microgram per ml, virus pretreated", "result": 99.73, "unit": "%"}, {"measurement": "Percentage inhibition of hiv growth in CEM-GFP T cell line, Without Pretreatment", "setting": "HIV-1 NL-4.3 virus; Ac-B 1.5 microgram per ml", "result": 100, "unit": "%"}, {"measurement": "Percentage inhibition of hiv growth in CEM-GFP T cell line, Pretreatment with Ac-B", "setting": "HIV-1 NL-4.3 virus; Ac-B 1.5 microgram per ml, virus pretreated", "result": 100, "unit": "%"}, {"measurement": "Percentage inhibition of hiv growth in CEM-GFP T cell line, Without Pretreatment", "setting": "HIV-1 NL-4.3 virus; Ac-B 2 microgram per ml", "result": 100, "unit": "%"}, {"measurement": "Percentage inhibition of hiv growth in CEM-GFP T cell line, Pretreatment with Ac-B", "setting": "HIV-1 NL-4.3 virus; Ac-B 2 microgram per ml, virus pretreated", "result": 100, "unit": "%"}, {"measurement": "Percentage inhibition of hiv growth in CEM-GFP T cell line, Without Pretreatment", "setting": "HIV-1 NL-4.3 virus; Ac-B 2.5 microgram per ml", "result": 100, "unit": "%"}, {"measurement": "Percentage inhibition of hiv growth in CEM-GFP T cell line, Pretreatment with Ac-B", "setting": "HIV-1 NL-4.3 virus; Ac-B 2.5 microgram per ml, virus pretreated", "result": 100, "unit": "%"}, {"measurement": "Inhibition of viral transmission, untreated virus", "setting": "HIV-1 NL-4.3 virus; cells infected with untreated virus, cultured in the presence of Ac-B 0.1 to 2.5 microgram per ml", "result": "only partial inhibition"}]}
